Each structure is given as a SMILES string. Like-named read-outs stand apart in the source and are kept apart here.

The nature of data set [1]: Ex vivo biodistribution study in naïve adult CD1 mice. The settings on record: for tissue uptake at 1 h: CD1, mouse, iv, 0.04 ug, total radioactivity; for tissue uptake at 1 h / Retention in stomach: 60 min post-injection. The protocol:
(§1) Ex vivo biodistribution study. Female (FIG. 1A) and male (FIG. 1B) naïve adult CD1 mice (immunocompetent) were injected with [^68Ga]Ga-PPF11N ((0.19±0.04) MBq, 0.04 μg, 1.3 μg/kg). Mice were sacrificed at 5, 15, 30, 60, 120 and 240 min post-injection (N=4 each). A control group of mice of each sex was co-injected with a blocking dose of PPF11N peptide (40 μg, 1.3 mg/kg) and sacrificed at 60 min post-injection. Organs (blood, bone, brain, colon, gonad, kidney, liver, lung, muscle, pancreas, stomach) were weighted and assessed for activity concentration over time. Ex vivo biodistribution in all resected tissues was computed as the percentage of injected dose per gram of tissue (% ID/g).
(§2) Immunocompetent CD1 mice (N=28 males and N=28 females on study, N=3 males and N=3 females spare; males 9 weeks old, females 5 weeks old at delivery) were acclimatized for 7 days, inspected daily and weighed on the day of injection. For each sex, mice were randomly allocated to 7 groups (N=4 mice per group) and each group was injected (bolus i.v. route into a laterial tail vein) with [^68Ga]Ga-PPF11N peptide ((0.19±0.04) MBq in 0.15 mL; (0.039±0.02) μg peptide in non-blocked groups. Following radiolabeling, each product batch was assessed by iTLC and HPLC to ensure the material met the target criteria. For the blocked group, 38±1 μg of peptide was injected. At 5 min, 15 min, 30 min, 1 h, 2 h and 4 h post-injection mice (n=4 per time point for each sex) were sacrificed by cervical dislocation and tissues (blood, bone, brain, colon, gonad, kidney, liver, lung, muscle, pancreas, stomach) were resected, weighed and the radioactivity was counted with a gamma-counter along with calibration standards (dilution series in triplicate). The study design is depicted in the table below.
The activity of each collected tissue was measured in units of counts per min (CPM). Triplicate aliquots of serial dilutions of the radiotracer were also assayed in the gamma counter in order to calculate a conversion factor to units of activity (% ID/g). Measured values were decay corrected and adjusted to account for background radiation

Data set [2] addresses T1, CCK2R (Mus musculus, UniProt P56481).
T1 construct: from tissue; host or cells: organs of naive CD1 mice (stomach and others), in vivo injection with ex vivo gamma counting
T1 sequence (P56481 1-453): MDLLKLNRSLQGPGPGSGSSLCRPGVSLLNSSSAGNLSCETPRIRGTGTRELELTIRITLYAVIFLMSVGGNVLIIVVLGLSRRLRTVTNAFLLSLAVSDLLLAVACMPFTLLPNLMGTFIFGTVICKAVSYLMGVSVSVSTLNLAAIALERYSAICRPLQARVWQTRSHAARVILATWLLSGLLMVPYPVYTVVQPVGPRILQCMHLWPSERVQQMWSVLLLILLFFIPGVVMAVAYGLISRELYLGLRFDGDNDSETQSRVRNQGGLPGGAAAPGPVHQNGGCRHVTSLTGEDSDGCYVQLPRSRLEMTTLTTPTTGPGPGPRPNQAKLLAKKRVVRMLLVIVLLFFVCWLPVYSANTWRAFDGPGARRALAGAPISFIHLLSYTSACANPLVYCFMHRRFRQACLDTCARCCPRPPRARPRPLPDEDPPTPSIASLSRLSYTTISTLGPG
The experiment in a line: Peptide blocking experiment (co-injection of blocking dose of PPF11N) in the ex vivo biodistribution study. The arrangement: species or system CD1 mice. The settings on record: male and female mice, 60 min post-injection, PPF11N 40 μg per mouse. As to the method: as §1, §2
(§3) The activity of each collected tissue was measured in units of counts per min (CPM). […] Measured values were decay corrected and adjusted to account for background radiation

For data set [3], the system named is T2, CCK2R.
T2 construct: from tissue; host or cells: organs of naive CD1 mice (stomach and others), in vivo injection with ex vivo gamma counting
Described as above. The arrangement: species or system CD1 mice. To be noted: CD1, stomach, iv, total radioactivity, 60 min post-injection, co-injected PPF11N 40 μg per mouse (1.3 mg/kg), read-out: Concentration in the stomach with peptide blocking dose. As to the method:
as §1, §2, §3

In the case of `CCCC[C@H](NC(=O)[C@H](Cc1c[nH]c2ccccc12)NC(=O)CNC(=O)[C@H](Cc1ccc(O)cc1)NC(=O)[C@H](C)NC(=O)[C@@H](CCC(=O)O)NC(=O)[C@@H](CCC(=O)O)NC(=O)[C@@H](CCC(=O)O)NC(=O)[C@@H](CCC(=O)O)NC(=O)[C@@H](CCC(=O)O)NC(=O)[C@@H](CCC(=O)O)NC(=O)CN1CCN(CC(=O)O)CCN(CC(=O)O)CCN(CC(=O)O)CC1)C(=O)N[C@@H](CC(=O)O)C(=O)N[C@@H](Cc1ccccc1)C(N)=O` [^68Ga-PPF11N, ^68Ga-Y-DGlu-DGlu-DGlu-DGlu-DGlu-DGlu-Ala-Tyr-Gly-Trp-Nle-Asp-Phe-NH2, metal not drawn], the tissue uptake at 1 h was 0.4 ± 0.12 %ID/g in data set [1] (blood, female mice, i.v., 0.04 μg peptide, read-out: Blood concentration); 0.46 ± 0.35 %ID/g in data set [1] (blood, male mice, i.v., 0.04 μg peptide, read-out: Blood concentration); 2.98 ± 0.53 %ID/g in data set [1] (kidney, female mice, read-out: Retention in kidneys); 3.38 ± 0.67 %ID/g in data set [1] (kidney, male mice, read-out: Retention in kidneys); 0.16 ± 0.09 %ID/g in data set [1] (muscle, female mice, read-out: Activity concentration in muscle); 0.1 ± 0.03 %ID/g in data set [1] (muscle, male mice, read-out: Activity concentration in muscle). Besides, the tissue uptake at 1 h in data set [1] (stomach, female mice, read-out: Retention in stomach) is 1.71 ± 0.56 %ID/g; in data set [1] (stomach, male mice, read-out: Retention in stomach), 1.93 ± 0.18 %ID/g; in the data set with CCK2R [3] (female mice) it was 0.19 ± 0.02 %ID/g; with CCK2R [3] (male mice) it was 0.32 ± 0.07 %ID/g. Also, the Retention in stomach in data set [1] (female mice) amounted to 1.71±0.56 % ID/g; in data set [1] (male mice), 1.93±0.18 % ID/g. In addition, the Clearance from organs entry in data set [1] (male and female mice, 5 to 240 min post-injection) was “rapid clearance from all organs except for kidneys and stomach”. Also, the “Effect of peptide blocking dose on kidney exposure” value at CCK2R [2] is recorded as “unable to reduce kidney exposure”.

For the origin of these results see US20230270893A1, “GALLIUM-LABELED GASTRIN ANALOGUE AND USE IN A METHOD OF IMAGING CCKB-RECEPTOR-POSITIVE TUMORS OR CANCERS” (DEBIOPHARM INTERNATIONAL S.A., priority 2020, published 2023).
